Source: PMC12670160, “A drug-repurposing screen of FDA- and EMA-approved drugs identifies two NF-κB inhibitors active against eumycetoma” (Journal of Antimicrobial Chemotherapy, 2025)
Values after ≈ are worked out from the molar mass of the structure shown. Read-outs that look alike come from different tables or passages of the source.

What was measured:
eumycetoma = details: first 6 months of treatment, cited from earlier work
M. mycetomatis strain I1 = assay: IC50 and MIC determination, CellTiter-Glo, strain I1; format: cell-based, Madurella mycetomatis
M. mycetomatis [1] = assay: In vitro susceptibility, averages over M. mycetomatis isolates (average metabolic activity at 2 µM, mean MIC); format: cell-based; details: Madurella mycetomatis, 96 h, 4 days at 37°C, CellTiter-Glo, average of 3 isolates, 20% or below = inhibition
Method: M. mycetomatis isolate MM55 was used to screen the Oncode library. This strain was kindly provided by Prof. […] The three M. mycetomatis isolates were identified by ITS sequencing and maintained at −80°C at Erasmus MC. Prior to in vitro screening, isolates were cultured on Sabouraud agar plates (BD, Erembodegem, Belgium) at 37°C.
The Oncode Drug Repurposing library was based on the drug repurposing library from the Drug Repurposing Hub of the Broad Institute and recreated by the Oncode institute.[13] […] Each well of the 384-well plates contained 0.6 µL of a 200 µM stock concentration of compound, resulting in a final concentration of 2 µM when the fungus was added. […] Furthermore, this concentration could also be reached in the G. mellonella larvae.[8],[11] The prepared 384-well plates were transferred on dry ice to the Erasmus MC and stored at −80°C until they were screened.
Each plate also contained a growth control (60 µL of M. mycetomatis hyphal suspension, plus 0.6 µL of DMSO) and a negative control (60 µL of culture medium, plus 0.6 µL of DMSO). Plates were then incubated for 4 days at 37°C, after which 30 µL of CellTiter-Glo 3D Cell Viability reagent was added to every well.[19] After 25 min of incubation at room temperature, the luminescence was measured with a CytoFluor Series 4000 luminometer (PerSeptive Biosystems, Framingham, MA, USA). To determine the metabolic activity, the following formula was used:
(§1) Percentagemetabolicactivity=(Absorbancetestluminensence−AbsorbanceNCluminensence/AbsorbanceGCluminensence−AbsorbanceNCluminensence)×100
(§2) where, GC is growth control and NC is negative control. The luminescence measured for the GC is considered as 100% metabolic activity. The luminescence for the NC is considered as 0% metabolic activity.

M. mycetomatis [2] = system: M. mycetomatis; parameters: method as in PMID 35398930, PMID 15793113, PMID 36005544, PMID 34181477, PMID 22964246; details: against M. mycetomatis; cited from earlier work
[3] = system: M. mycetomatis-infected G. mellonella larvae; details: cited from earlier work
M. mycetomatis strain P1 = assay: IC50 and MIC determination, CellTiter-Glo, strain P1; format: cell-based, Madurella mycetomatis
[4] = system: M. mycetomatis strain mm55; assay: IC50 and MIC determination, CellTiter-Glo, strain mm55; format: cell-based, Madurella mycetomatis; details: for IC50: concentration inhibiting 50% of fungal hyphae growth; for MIC: concentration with complete growth inhibition
[5] = system: M. mycetomatis isolate MM55; assay: Oncode library screen at 2 µM, CLSI-based in vitro susceptibility assay with CellTiter-Glo (metabolic activity); format: cell-based, Madurella mycetomatis; details: primary screen, strain MM55, 20% or below = inhibition
Method: M. mycetomatis isolate MM55 was used to screen the Oncode library. This strain was kindly provided by Prof. A. Fahal of the Mycetoma Research Centre in 1999. The most promising hit compounds were also screened against M. mycetomatis isolates P1 and I1, which originated from Mali and India, respectively.[17] The three M. mycetomatis isolates were identified by ITS sequencing and maintained at −80°C at Erasmus MC. Prior to in vitro screening, isolates were cultured on Sabouraud agar plates (BD, Erembodegem, Belgium) at 37°C.
The Oncode Drug Repurposing library was based on the drug repurposing library from the Drug Repurposing Hub of the Broad Institute and recreated by the Oncode institute.[13] The library contained 5631 drugs.[18] A copy of this library was plated out on 384-well plates with lids (cat no. 655180; Greiner Bio-One, Alphen aan den Rijn, The Netherlands) by the Leiden University Medical Center. Each well of the 384-well plates contained 0.6 µL of a 200 µM stock concentration of compound, resulting in a final concentration of 2 µM when the fungus was added. From the previous libraries we screened, we noted that there are several compounds able to inhibit M. mycetomatis at this concentration in vitro. Furthermore, this concentration could also be reached in the G. mellonella larvae.[8],[11] The prepared 384-well plates were transferred on dry ice to the Erasmus MC and stored at −80°C until they were screened. We created a second library from the original library, containing only those 29 compounds that were active in the first screen.
. Each plate also contained a growth control (60 µL of M. mycetomatis hyphal suspension, plus 0.6 µL of DMSO) and a negative control (60 µL of culture medium, plus 0.6 µL of DMSO). Plates were then incubated for 4 days at 37°C, after which 30 µL of CellTiter-Glo 3D Cell Viability reagent was added to every well.[19] After 25 min of incubation at room temperature, the luminescence was measured with a CytoFluor Series 4000 luminometer (PerSeptive Biosystems, Framingham, MA, USA). To determine the metabolic activity, the following formula was used:
as §1, §2

M. mycetomatis [6] = assay: In vitro susceptibility, averages over M. mycetomatis isolates (average metabolic activity at 2 µM, mean MIC); format: cell-based, Madurella mycetomatis; details: for MIC: Madurella mycetomatis, mean/average over strains MM55, P1 and I1
[7] = system: healthy uninfected G. mellonella larvae; details: 20 µL of 20 µM injected; 10 day observation; toxic if more than 20% of larvae died
Method: (§3) For in vivo experiments, sixth-week instar G. mellonella larvae were purchased from Blue-Lagoon, Maassluis, The Netherlands. The larvae were raised and kept in the dark at room temperature. Larvae without any discoloration and weighing around 500 mg were selected for experiments.
To determine the toxicity, 15 healthy uninfected larvae were injected with 20 µL of 20 µM compound as previously described.[16] […] As a control, a separate group of larvae were injected with 20 µL of PBS. Larvae were housed in Petri dishes with Whatman paper at 37°C in the dark. Survival was monitored for 10 days.

[8] = system: M. mycetomatis MM55-infected G. mellonella larvae; assay: Therapeutic efficacy in M. mycetomatis-infected G. mellonella larvae (survival, log-rank); format: in vivo, Galleria mellonella; details: 20 µL of 10 µM at 4, 28 and 52 h post infection; 10 days
Method: as §3
The wet weight was determined and 10 mL of PBS per gram of mycelia was added. The suspension was then sonicated for 2 min to achieve a particle size of 10 µm. The fungal suspension (4 mg/40 µL) was injected into the last left pro-leg of a healthy G. mellonella larva with an insulin 29G U-100 needle to reach a final inoculum of 4 mg/larva. Larvae were placed in Petri dishes containing Whatman paper in a 37°C incubator.
A control group was also included in which M. mycetomatis-infected larvae were treated with PBS or with 1 mg/kg amphotericin B (Fungizone, Bristol Myers Squibb, Utrecht, The Netherlands). […] The treatment was repeated at 28 h post infection and 52 h post infection via different prolegs. The infection was monitored for 10 days.
To compare the survival rates between PBS treatment control and the different experimental groups a log-rank test was performed. All data were processed and performed in GraphPad Prism 10.

[9] = only at concentrations higher than used in human patients
[10] = M. mycetomatis-infected G. mellonella larvae

C[C@@H](c1nc(-c2ccc(C#N)cc2)cs1)[C@@](Cn1cncn1)(OCOP(=O)(O)O)c1ccc(F)cc1F [fosravuconazole]
lesion size or β-glucan levels (eumycetoma; 200 mg/week): no reduction
lesion size or β-glucan levels (eumycetoma; 300 mg/week): no reduction

C[C@@H](c1nc(-c2ccc(C#N)cc2)cs1)[C@](O)(Cn1cncn1)c1ccc(F)cc1F [Ravuconazole]
IC50 (M. mycetomatis strain I1; Madurella mycetomatis, I1): < 0.03 µM
MIC (M. mycetomatis strain I1; Madurella mycetomatis, I1): 0.03 µM (≈ 0.0131 µg/mL)
activity at 2 µM (M. mycetomatis [1]): 1.3%
MIC50 (M. mycetomatis [2]): 0.016 µg/mL (≈ 0.0366 µM)
larval survival [3, 9]: Prolonged survival
IC50 (M. mycetomatis strain P1; Madurella mycetomatis, P1): < 0.03 µM
MIC (M. mycetomatis strain P1; Madurella mycetomatis, P1): 0.06 µM (≈ 0.0262 µg/mL)
IC50 ([4]; Madurella mycetomatis): 0.17 µM
MIC ([4]; Madurella mycetomatis): 0.25 µM (≈ 0.109 µg/mL)

Cc1ccc(-c2c(-c3nn(C)c4ncnc(N5CC[C@H](N6CCCCC6)C5)c34)cnn2C)cc1 [pf4981517]
Madurella mycetomatis metabolic activity at 2µM (%) [5]: 79.1%

O=C(NC[C@H]1CN(c2ccc(N3CCOCC3=O)cc2)C(=O)O1)c1ccc(Cl)s1 [rivaroxaban xarelto]
Madurella mycetomatis metabolic activity at 2µM (%) [5]: 98.3%

C[CH2][Hg][S]c1ccccc1C(=O)[O-].[Na+] [Thimerosal]
IC50 (M. mycetomatis strain I1; strain I1): 0.04 µM
MIC (M. mycetomatis strain I1; strain I1): 0.06 µM
Average metabolic activity at 2 µM (%) (M. mycetomatis [6]; 2 µM, 4 days at 37°C, CellTiter-Glo, average of 3 isolates, 20% or below = inhibition): 1.4%
IC50 (M. mycetomatis strain P1; strain P1): < 0.03 µM
MIC (M. mycetomatis strain P1; strain P1): 0.03 µM
Toxicity in G. mellonella larvae at 20 µM [7]: toxicity was noted
Survival of M. mycetomatis-infected larvae versus PBS [8]: No prolonged survival
log-rank P versus PBS treatment [8]: 0.5242
IC50 [4]: 0.08 µM
MIC [4]: 0.25 µM

C[C@@H](c1ncncc1F)[C@](O)(Cn1cncn1)c1ccc(F)cc1F [Voriconazole]
IC50 (M. mycetomatis strain I1; Madurella mycetomatis, I1): 0.2 µM
MIC (M. mycetomatis strain I1; Madurella mycetomatis, I1): 0.25 µM (≈ 0.0873 µg/mL)
activity at 2 µM (M. mycetomatis [1]): 1.1%
MIC50 (M. mycetomatis [2]): 0.125 µg/mL (≈ 0.358 µM)
larval survival [3, 10]: No prolonged larval survival
IC50 (M. mycetomatis strain P1; Madurella mycetomatis, P1): 0.33 µM
MIC (M. mycetomatis strain P1; Madurella mycetomatis, P1): 0.5 µM (≈ 0.175 µg/mL)
IC50 ([4]; Madurella mycetomatis): 0.63 µM
MIC ([4]; Madurella mycetomatis): 1 µM (≈ 0.349 µg/mL)

CC(C)OC(=O)C1=CN(C(=O)c2ccc(F)c(F)c2)CC(C)(C)c2c1[nH]c1ccccc21 [turofexorate isopropyl xl335]
Madurella mycetomatis metabolic activity at 2µM (%) [5]: 92.4%

CC(=O)N1CCN(c2ccc(OCC3COC(Cn4ccnc4)(c4ccc(Cl)cc4Cl)O3)cc2)CC1 (stereo not shown) [Ketoconazole]
IC50 (M. mycetomatis strain I1; Madurella mycetomatis, I1): 0.05 µM
MIC (M. mycetomatis strain I1; Madurella mycetomatis, I1): 0.06 µM (≈ 0.0319 µg/mL)
activity at 2 µM (M. mycetomatis [1]): 0.9%
larval survival [3, 10]: No prolonged larval survival
IC50 (M. mycetomatis strain P1; Madurella mycetomatis, P1): 0.17 µM
MIC (M. mycetomatis strain P1; Madurella mycetomatis, P1): 0.25 µM (≈ 0.133 µg/mL)
IC50 ([4]; Madurella mycetomatis): 0.66 µM
MIC ([4]; Madurella mycetomatis): 1 µM (≈ 0.531 µg/mL)

N#C/C(=C1/SC[C@@H](c2ccc(Cl)cc2Cl)S1)n1ccnc1 [Luliconazole]
IC50 (M. mycetomatis strain I1; Madurella mycetomatis, I1): < 0.03 µM
MIC (M. mycetomatis strain I1; Madurella mycetomatis, I1): 0.03 µM (≈ 0.0106 µg/mL)
activity at 2 µM (M. mycetomatis [1]): 1%
MIC50 (M. mycetomatis [2]): 0.001 µg/mL (≈ 0.00282 µM)
MIC (M. mycetomatis [6]): < 0.03 µM
IC50 (M. mycetomatis strain P1; Madurella mycetomatis, P1): < 0.03 µM
MIC (M. mycetomatis strain P1; Madurella mycetomatis, P1): 0.03 µM (≈ 0.0106 µg/mL)
IC50 ([4]; Madurella mycetomatis): < 0.03 µM
MIC ([4]; Madurella mycetomatis): 0.03 µM (≈ 0.0106 µg/mL)

COC(=O)C1=C(C#N)NC(C)=C(C(=O)OC(C)C)C1c1cccc([N+](=O)[O-])c1 (stereo not shown) [nilvadipine arc029]
Madurella mycetomatis metabolic activity at 2µM (%) [5]: 85.2%

N#C/C(=C1/SCC(c2ccccc2Cl)S1)n1ccnc1 (stereo not shown) [Lanoconazole]
IC50 (M. mycetomatis strain I1; Madurella mycetomatis, I1): < 0.03 µM
MIC (M. mycetomatis strain I1; Madurella mycetomatis, I1): 0.03 µM (≈ 0.0096 µg/mL)
activity at 2 µM (M. mycetomatis [1]): 3%
MIC50 (M. mycetomatis [2]): 0.002 µg/mL (≈ 0.00625 µM)
MIC (M. mycetomatis [6]): < 0.03 µM
IC50 (M. mycetomatis strain P1; Madurella mycetomatis, P1): < 0.03 µM
MIC (M. mycetomatis strain P1; Madurella mycetomatis, P1): 0.03 µM (≈ 0.0096 µg/mL)
IC50 ([4]; Madurella mycetomatis): 0.04 µM
MIC ([4]; Madurella mycetomatis): 0.06 µM (≈ 0.0192 µg/mL)

CC[C@@H]([C@H](C)O)n1ncn(-c2ccc(N3CCN(c4ccc(OC[C@@H]5CO[C@@](Cn6cncn6)(c6ccc(F)cc6F)C5)cc4)CC3)cc2)c1=O [Posaconazole]
IC50 (M. mycetomatis strain I1; Madurella mycetomatis, I1): < 0.03 µM
MIC (M. mycetomatis strain I1; Madurella mycetomatis, I1): 0.03 µM (≈ 0.021 µg/mL)
activity at 2 µM (M. mycetomatis [1]): 1.9%
MIC50 (M. mycetomatis [2]): 0.03 µg/mL (≈ 0.0428 µM)
larval survival [3, 9]: Prolonged survival
MIC (M. mycetomatis [6]): < 0.03 µM
IC50 (M. mycetomatis strain P1; Madurella mycetomatis, P1): < 0.03 µM
MIC (M. mycetomatis strain P1; Madurella mycetomatis, P1): 0.03 µM (≈ 0.021 µg/mL)
IC50 ([4]; Madurella mycetomatis): 0.13 µM
MIC ([4]; Madurella mycetomatis): 0.25 µM (≈ 0.175 µg/mL)
